According to article PMC5036617 (Toxicological Sciences, 2016):
Read-outs that look alike come from different tables or passages of the source.

Tests used:
[1] = test system: mitochondrial respiratory complex I; assay: Complex I-linked respiration assay in permeabilized cells; format: cell-based; conditions: for concentration inducing a significant reduction in complex I activity: permeabilized HepG2 cells, complex I-stimulated maximal respiration vs vehicle control, 10–250 µM
Protocol: (§1) Culture medium was replaced with MAS buffer containing constituents to stimulate oxygen consumption via complex I (as previously without FCCP), complex II (ADP; 4.6 mM, succinate; 20 mM, rotenone; 1 µM, BSA; 0.2% w/v, PMP; 1 nM), or complex III (ADP; 4.6 mM, duroquinol; 500 μM, rotenone; 1 μM, malonic acid; 40 μM, BSA; 0.2% w/v, PMP; 1 nM) dependent on the respiratory complex of interest. […] Changes in complex II activity were also assessed at lower compound concentrations; 2–30 μM (Supplementary Figure S1). Complex I, II, and III activity were defined by the change in complex I, II, or III-stimulated maximal respiration respectively compared with vehicle control.
(§2) Following completion of OCR assays, medium was removed from all wells and 20 µl of somatic cell ATP releasing agent was added to each well before shaking for 1 min and transfer of 10 µl of lysate to a 96-well plate and performance of a BCA assay according to the manufacturer’s instructions. Protein content per well was used to normalize OCR.

[2] = test system: mitochondrial respiratory complex II; assay: Complex II-linked respiration assay in permeabilized cells; format: cell-based; conditions: permeabilized HepG2 cells; for complex II activity: complex II-stimulated maximal respiration vs vehicle control, 10–250 µM
Protocol: as §1, §2

Complex V (ATP synthase) = assay: Complex V assay in permeabilized cells; format: cell-based; conditions: permeabilized HepG2 cells, OCR change coupled vs uncoupled cells, 10–250 µM
Protocol: The assay consisted of a basal OCR measurement of 2 cycles of mix (30 s), wait (30 s), and measure (2 min) followed by MAS or FCCP injection (0.5 µM) and 2 measurement cycles. MAS-injected cells remain coupled whereas FCCP-injected cells become uncoupled meaning Complex V (ATP synthase) inhibition should not result in a change in OCR. […] FIG. 4 Representative complex V assay trace. Complex V assays consisted of cells in a solution containing substrates for complex IV before a series of compound injections into the cell culture microplate. FCCP (OXPHOS uncoupler) (Trace A) or MAS buffer (Traces B and C) was first injected, followed by 2 cycles of measurements. Flutamide, 2-hydroxyflutamide, oligomycin (positive control), or vehicle control was then injected into both the uncoupled (FCCP-treated) and coupled (MAS-treated) cells. […] Each measurement cycle was a total of 3 min. Following completion of OCR assays, medium was removed from all wells and 20 µl of somatic cell ATP releasing agent was added to each well before shaking for 1 min and transfer of 10 µl of lysate to a 96-well plate and performance of a BCA assay according to the manufacturer’s instructions. Protein content per well was used to normalize OCR.

[3] = cited from earlier work; for half-life: after flutamide administration, ref Kostrubsky et al., 2007; for Cmax: plasma, ref Schulz et al., 1988, read-out: maximum plasma concentration (Cmax)
androgen receptor = test system: androgen receptor; parameters: method as in Shet et al., 1997; conditions: metabolite compared with parent compound; ref Shet et al., 1997; cited from earlier work
[4] = ref Chu et al., 1998; Wysowski and Fourcroy, 1996; cited from earlier work

Row | SMILES | concentration inducing a significant reduction in complex I activity [1] [µM] | complex II activity [2] | concentration inducing a significant decline in complex II activity ([2]; complex II-stimulated maximal respiration, 2–30 and 10–250 µM) [µM] | concentration inducing a significant reduction in complex V activity (Complex V (ATP synthase)) [µM] | half-life [3] [h] | Cmax ([3]; metabolite after single 250 mg dose of flutamide) [nM] | androgen receptor binding affinity (androgen receptor) | OCR upon compound injection, complex I assay ([1]; permeabilised HepG2 cells, up to 250 µM) | complex V activity (Complex V (ATP synthase)) | Cmax ([3]; single 250 mg dose of flutamide) [nM] | parent drug as share of detectable compound in the plasma following administration ([3]; ref Radwanski et al., 1989) [%] | cases of hospitalization or death (idiosyncratic DILI) in treated patients [4] [%]
1 | CC(C)(O)C(=O)Nc1ccc([N+](=O)[O-])c(C(F)(F)F)c1 [2-hydroxyflutamide] | ≥ 30 | significant reduction | ≥ 10 | ≥ 125 | 9.6 | 4400 | higher androgen receptor binding affinity than its parent compound |  |  |  |  | 
2 | CC(C)C(=O)Nc1ccc([N+](=O)[O-])c(C(F)(F)F)c1 [Flutamide] | ≥ 30 | only 2-hydroxyflutamide and not flutamide induced a significant reduction |  |  | 7.8 |  |  | immediate concentration-dependent reduction in OCR | this was not the case for flutamide | 72.2 | 2.5 | 0.03
